Data published in patent US9732031B2 (priority 2013, dated 2017).

Key:
in vivo = conditions: male, C57BL/6, mouse, po; for half-life: 75 mg/kg
Description: As appreciated, h-rac-bupropion is a 1:1 mixture of the two protonated enantiomers h-S-bupropion and h-R-bupropion. […] Animals were euthanized at preset time points (n=3 per time point). […] Quantitative data was analyzed in Excel (Microsoft Corp, Redmond, Wash.) using the PKSolver add-in (version 2, as described by Zhang et al. in Comput Methods Programs Biomed 99 (2010) 306-314) to determine PK parameters.

dopamine transporter = target: T1, dopamine transporter (Rattus norvegicus, UniProt P23977); assay: Inhibition of dopamine uptake in rat striatum synaptosomes; format: biochemical
T1 construct: tissue Cerep, France (assay provider); host or cells: rat striatum synaptosomes
Description: The inhibitory activity of the (S)- and (R)-enantiomers of 1-(m-chlorophenyl)-2-(tert-butylamino)-(2-^2H)-propan-1-one was evaluated in the rat synaptosome assay (Cerep, France). Briefly, each compound was incubated for 15 min at 37° C. with rat striatum synaptosomes in the presence of tritiated dopamine (DA). The uptake of radiolabeled DA by the synaptosomes was measured by scintillation counting as a function of compound concentration. Inhibition of the dopamine transporter is observed when the amount of radioactivity in the synaptosomes is lower in the presence of the test article than in its absence. Analysis of the data was performed using the log(inhibitor) vs. response—variable slope (four parameters) model in GraphPad Prism 6.0 (GraphPad Software, Inc., La Jolla, Calif.), where response is % inhibition (% inhibition=100 [(DA uptake)control−(DA uptake)compound)]/(DA uptake)vehicle). Both inhibition curves were characterized by Hill slopes close to 1.

female CD-1 mice = assay: Behavioral effects after intraperitoneal injection in female CD-1 mice; conditions: 2 h observation
Description: Individual body weights were used for dose volume calculations. Equal numbers of animals per group were tested each day. […] Animals were also observed 24 h post-dose. During the 2 h observation period, presence or absence of ataxic gait, paralysis, hyperactivity, hypoactivity, and catatonic episodes was recorded. Number, time of onset, duration, and intensity of convulsions were also recorded. Duration of each convulsion was graded as short (1 to 10 s), medium (11 to 30 s), or long (≧31 s). Intensity of convulsion was similarly graded as mild, moderate, or severe. Any animal showing a single episode of severe seizure longer than 1 min or experiencing greater than 40 consecutive episodes of severe convulsions over 1 h or less was euthanized.

[1] = target: T2, human α7 nicotinic acetylcholine receptor (Homo sapiens, UniProt P36544); assay: Inhibition of acetylcholine induced current in Xenopus Laevis oocytes overexpressing α7 nAChR; format: cell-based
T2 construct: expressed in transfected cells; host or cells: Xenopus laevis oocytes injected with cDNA
Description: Evaluation of the antagonist activity of the enantiomers of deuterated bupropion at α7 and α4β2 nicotinic acetylcholine receptors (nAChRs) was carried out in Xenopus Laevis oocytes prepared and injected with the corresponding cDNA using standard procedures. Receptor expression was examined two days after injection. For α4β2 nAChR, the two cDNAs were injected in equimolar amounts. All experiments were performed at 18° C. and cells were superfused with OR2 medium containing 82.5 mM sodium chloride, 2.5 mM potassium chloride, 5 mM HEPES, 1.8 mM calcium chloride, and 1 mM magnesium chloride at pH 7.4. A two-electrode voltage-clamp configuration was used to record currents evoked by acetylcholine addition. Data acquisition and analysis was performed in Matlab (Mathworks, Inc., Natick, Mass.). Statistical analysis was executed in Excel (Microsoft Corp, Redmond, Wash.) or Matlab (Mathwork, Inc., Natick, Mass.). All experiments were carried out using at least 3 oocytes.

[2] = target: T3, norepinephrine transporter (Rattus norvegicus, UniProt Q63380); assay: Inhibition of norepinephrine uptake in rat hypothalamus synaptosomes; format: biochemical
T3 construct: tissue Cerep, France (assay provider); host or cells: rat hypothalamus synaptosomes
Description: The inhibitory activity of the (S)- and (R)-enantiomers of 1-(m-chlorophenyl)-2-(tert-butylamino)-(2-^2H)-propan-1-one was evaluated in the rat synaptosome assay (Cerep, France). Briefly, compounds were incubated for 20 min at 37° C. with rat hypothalamus synaptosomes in the presence of tritiated norepinephrine (NE). The uptake of radiolabeled NE by the synaptosomes was measured as a function of compound concentration. Inhibition of the transporter is observed when the amount of radioactivity in the synaptosomes is lower in the presence of test article. Analysis of the data was performed using the log(inhibitor) vs. response—variable slope (four parameters) model in GraphPad Prism 6.0 (GraphPad Software, Inc., La Jolla, Calif.), where response is % inhibition (% inhibition=100 [(NE uptake)control−(NE uptake)compound)]/(NE uptake)vehicle). Both inhibition curves were characterized by Hill slopes close to 1.

T3 sequence (Q63380 1-617): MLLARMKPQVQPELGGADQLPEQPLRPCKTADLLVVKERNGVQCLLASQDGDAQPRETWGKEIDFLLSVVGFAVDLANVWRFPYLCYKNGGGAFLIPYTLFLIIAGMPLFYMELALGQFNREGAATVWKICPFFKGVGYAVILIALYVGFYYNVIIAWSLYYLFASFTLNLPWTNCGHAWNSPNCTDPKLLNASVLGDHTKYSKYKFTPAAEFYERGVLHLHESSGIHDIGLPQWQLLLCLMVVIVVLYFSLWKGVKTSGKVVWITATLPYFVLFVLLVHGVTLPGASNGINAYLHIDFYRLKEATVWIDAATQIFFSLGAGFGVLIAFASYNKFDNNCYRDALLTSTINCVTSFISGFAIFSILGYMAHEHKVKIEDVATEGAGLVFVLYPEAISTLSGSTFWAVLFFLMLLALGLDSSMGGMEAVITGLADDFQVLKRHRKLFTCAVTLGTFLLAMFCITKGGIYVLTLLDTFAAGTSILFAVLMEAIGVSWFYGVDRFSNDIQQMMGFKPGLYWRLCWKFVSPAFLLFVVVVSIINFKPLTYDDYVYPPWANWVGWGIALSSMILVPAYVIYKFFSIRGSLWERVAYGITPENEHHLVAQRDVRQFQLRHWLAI
T2 sequence (P36544 23-502): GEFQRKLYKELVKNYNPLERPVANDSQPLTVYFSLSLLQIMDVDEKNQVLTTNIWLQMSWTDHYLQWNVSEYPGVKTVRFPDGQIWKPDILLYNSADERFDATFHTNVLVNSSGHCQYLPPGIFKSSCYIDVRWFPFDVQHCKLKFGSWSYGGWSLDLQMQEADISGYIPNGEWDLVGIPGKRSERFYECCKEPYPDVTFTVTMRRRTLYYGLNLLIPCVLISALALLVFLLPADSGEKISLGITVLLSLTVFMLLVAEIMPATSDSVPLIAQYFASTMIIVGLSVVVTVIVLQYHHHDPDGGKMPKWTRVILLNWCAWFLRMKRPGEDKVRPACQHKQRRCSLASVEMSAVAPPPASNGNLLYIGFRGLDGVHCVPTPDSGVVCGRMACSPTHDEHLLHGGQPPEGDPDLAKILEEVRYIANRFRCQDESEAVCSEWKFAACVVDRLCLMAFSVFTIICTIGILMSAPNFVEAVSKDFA
T1 sequence (P23977 whole entry): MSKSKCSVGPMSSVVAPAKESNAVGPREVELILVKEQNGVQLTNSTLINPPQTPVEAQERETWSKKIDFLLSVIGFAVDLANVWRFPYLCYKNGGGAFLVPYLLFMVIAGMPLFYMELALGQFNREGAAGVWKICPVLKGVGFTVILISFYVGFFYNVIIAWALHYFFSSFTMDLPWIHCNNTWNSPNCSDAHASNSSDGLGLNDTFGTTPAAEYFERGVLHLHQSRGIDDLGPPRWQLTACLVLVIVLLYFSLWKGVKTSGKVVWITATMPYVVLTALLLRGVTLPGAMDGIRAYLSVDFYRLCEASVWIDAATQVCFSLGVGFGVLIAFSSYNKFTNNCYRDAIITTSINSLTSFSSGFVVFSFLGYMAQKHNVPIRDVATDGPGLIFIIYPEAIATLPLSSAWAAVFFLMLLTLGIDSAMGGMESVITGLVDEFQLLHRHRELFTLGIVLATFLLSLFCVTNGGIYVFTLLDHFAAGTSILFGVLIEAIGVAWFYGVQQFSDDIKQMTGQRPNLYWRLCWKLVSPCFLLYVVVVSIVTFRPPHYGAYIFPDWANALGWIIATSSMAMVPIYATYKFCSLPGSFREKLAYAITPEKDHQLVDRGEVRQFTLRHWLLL

| Compound | AUC0-t of hR (h-R-bupropion) in plasma (in vivo) | AUC0-t of hRR (h-RR-hydroxybupropion) in plasma (in vivo) | AUC0-t of hS (h-S-bupropion) in plasma (in vivo) | AUC0-t of hSS (h-SS-hydroxybupropion) in plasma (in vivo) | half-life (in vivo) | IC50 (dopamine transporter) | mice per dose group experiencing ataxia (female CD-1 mice; 100 mg/kg i.p.) | mice per dose group experiencing catatonia (female CD-1 mice; 100 mg/kg i.p.) | mice per dose group experiencing convulsions (female CD-1 mice; 100 mg/kg i.p.) | mice per dose group experiencing hyperactivity (female CD-1 mice; 100 mg/kg i.p.) | mice per dose group experiencing hypoactivity (female CD-1 mice; 100 mg/kg i.p.) | mice per dose group experiencing ataxia (female CD-1 mice; 125 mg/kg i.p.) | mice per dose group experiencing catatonia (female CD-1 mice; 125 mg/kg i.p.) | mice per dose group experiencing convulsions (female CD-1 mice; 125 mg/kg i.p.) | mice per dose group experiencing hyperactivity (female CD-1 mice; 125 mg/kg i.p.) | mice per dose group experiencing hypoactivity (female CD-1 mice; 125 mg/kg i.p.) | mice per dose group experiencing ataxia (female CD-1 mice; 150 mg/kg i.p.) | mice per dose group experiencing catatonia (female CD-1 mice; 150 mg/kg i.p.) | mice per dose group experiencing convulsions (female CD-1 mice; 150 mg/kg i.p.) | mice per dose group experiencing hyperactivity (female CD-1 mice; 150 mg/kg i.p.) | also measured |
| --- | --- | --- | --- | --- | --- | --- | --- | --- | --- | --- | --- | --- | --- | --- | --- | --- | --- | --- | --- | --- | --- |
| [2H][C@](C)(NC(C)(C)C)C(=O)c1cccc(Cl)c1 [d-R-bupropion, (R)-1-(m-chlorophenyl)-2-(tert-butylamino)-(2-^2H)-propan-1-one] | 496 ng·h/mL | 1685 ng·h/mL | 340 ng·h/mL | 169 ng·h/mL | 1.7 h | 4.2 µM | 56% | 78% | 33% | 0% | 100% | 80% | 90% | 60% | 0% | 100% | 90% | 100% | 100% | 0% | AUC0-t of dRR (d-RR-hydroxybupropion) in plasma (in vivo): 22059 ng·h/mL; mice per dose group experiencing hypoactivity (female CD-1 mice; 150 mg/kg i.p.): 100%; IC50 [1]: 28.7 µM; IC50 [2]: 5.76 µM |
| [2H][C@@](C)(NC(C)(C)C)C(=O)c1cccc(Cl)c1 [d-S-bupropion, (S)-1-(m-chlorophenyl)-2-(tert-butylamino)-(2-^2H)-propan-1-one] | 269 ng·h/mL | 1129 ng·h/mL | 469 ng·h/mL | 395 ng·h/mL | 0.9 h | 0.42 µM | 70% | 10% | 40% | 100% | 0% | 89% | 44% | 70% | 78% | 0% | 100% | 80% | 100% | 20% | AUC0-t of dSS (d-SS-hydroxybupropion) in plasma (in vivo): 6545 ng·h/mL; AUC(0-t) (in vivo): 4760 ng·h/mL; mice per dose group experiencing hypoactivity (female CD-1 mice; 150 mg/kg i.p.): 80%; IC50 [1]: 43.2 µM; IC50 [2]: 2.3 µM |
| CC(NC(C)(C)C)C(=O)c1cccc(Cl)c1 (racemic) [h-rac-bupropion, racemic-1-(m-chlorophenyl)-2-(tert-butylamino)-propan-1-one, reference compound] | 6798 ng·h/mL | 18393 ng·h/mL | 5265 ng·h/mL | 6591 ng·h/mL | – | – | – | – | – | – | – | – | – | – | – | – | – | – | – | – | – |
